Consider eleven compounds from patent US20170121315A1, “HETEROBICYCLICALLY SUBSTITUTED 4-OXOBUTANE ACID DERIVATIVES AND USE THEREOF” (priority 2014, published 2017).

The target of data set [1] is T1, human macrophage elastase (HME/hMMP-12) (Homo sapiens, UniProt P39900).
T1 construct: purchased R&D Systems 917-MP
The data set can be described thus: In vitro HME inhibition test (standard or high-sensitivity). Format: biochemical. The note with it: in some cases mean values, rounded to two significant figures. The method, boiled down: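 Autoactivated HME (0.5 nM; high-sensitivity format 0.05 nM, ~16 h) with 5 μM quenched Mca-PLGLEEA-Dap(Dnp)-NH2 substrate in HEPES pH 7.4, NaCl, CaCl2, ZnCl2, EDTA, Brij buffer, 2 h at 37° C. Fluorescence at ex 323/em 393 nm; IC50 from signal versus concentration.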

The target in another data set is T2, MMP-8 (Homo sapiens, UniProt P22894).
T2 construct: purchased R&D Systems 908-MP
The data set can be described thus: In vitro MMP-8 inhibition test. Format: biochemical. The note with it: human MMP-8. From the text:
(§1) The MMP-mediated amidolytic cleavage of a suitable peptide substrate leads to an increase in fluorescent light here too. The signal intensity of the fluorescent light is directly proportional to the enzyme activity. The active concentration of a test compound at which half the enzyme is inhibited (50% signal intensity of the fluorescent light) is reported as the IC50 value.
Recombinant MMP-8 (R&D Systems, 908-MP) is chemically activated in accordance with the manufacturer's instructions using APMA. 1 μl of the test compound to be analysed (as a solution in DMSO, suitable concentrations e.g. 1 nM to 30 μM) is pipetted into 24 μl of activated enzyme (final concentration e.g. 0.5 nM) in reaction buffer (50 mM Tris/HCl pH 7.5, 10 mM CaCl2, 150 mM NaCl, 0.05% Brij®-35) in a white 384-hole microtiter plate (MTP). The enzymatic reaction is started by adding the intramolecularly quenched Mca-Pro-Leu-Gly-Leu-Dpa(Dnp)-Ala-Arg-NH2 substrate (final concentration e.g. 10 μM; R&D Systems, ES-001), so as to result in a total test volume of 50 μl. The course of the MMP-8 reaction is measured by measuring the fluorescence intensity (excitation 320 nm, emission 410 nm) over a suitable period of time (e.g. over 120 min at a temperature of 32° C.).

The next data set concerns the target T3, MMP-14 (Homo sapiens, UniProt P50281).
T3 construct: purchased R&D Systems 918-MP
The data set can be described thus: In vitro MMP-14 inhibition test. The class given is biochemical. To be noted: human MMP-14.
Source text: as §1
Recombinant MMP-14 (R&D Systems, 918-MP) is enzymatically activated in accordance with the manufacturer's instructions using recombinant furin (R&D Systems, 1503-SE). 1 μl of the test compound to be analysed (as a solution in DMSO, suitable concentrations e.g. 1 nM to 30 μM) is pipetted into 24 μl of activated enzyme (final concentration e.g. 0.5 nM) in reaction buffer (50 mM Tris/HCl pH 7.5, 10 mM CaCl2, 150 mM NaCl, 0.05% Brij®-35) in a white 384-hole microtiter plate (MTP). The enzymatic reaction is started by adding the intramolecularly quenched Mca-Lys-Pro-Leu-Gly-Leu-Dpa(Dnp)-Ala-Arg-NH2 substrate (final concentration e.g. 5 μM; R&D Systems, ES-010), so as to result in a total test volume of 50 μl. The course of the MMP-14 reaction is measured by measuring the fluorescence intensity (excitation 320 nm, emission 410 nm) over a suitable period of time (e.g. over 120 min at a temperature of 32° C.).

The next data set concerns rat hepatocytes. As to the kind of experiment: Hepatocyte assay for determination of metabolic stability. The class given is in vitro ADME. The note with it: after incubation with rat hepatocytes. Here is the method: The metabolic stability of test compounds towards hepatocytes is determined by incubating the compounds at low concentrations (preferably below or around 1 μM) and at low cell counts (preferably at 1*10^6 cells/ml) in order to ensure maximum linearity of kinetic conditions in the experiment. Seven samples from the incubation solution are taken for the LC-MS analysis within a fixed time pattern, in order to determine the half-life (i.e. the degradation) of the particular compound. This half-life is used to calculate various “Clearance” parameters (CL) and “Fmax” values (see below).
The CL and Fmax values are a measure of the phase 1 and phase 2 metabolism of the compounds in the hepatocytes. In order to minimize the influence of the organic solvent on the enzymes in the incubation batches, the concentration thereof is generally limited to 1% (acetonitrile) or 0.1% (DMSO).
For all species and breeds, a hepatocyte cell count in the liver of 1.1*10^8 cells/g of liver is expected.

The term IC50 denotes the concentration at which inhibition is half-maximal. Lower therefore signals greater potency.

T2 sequence (P22894 101-467): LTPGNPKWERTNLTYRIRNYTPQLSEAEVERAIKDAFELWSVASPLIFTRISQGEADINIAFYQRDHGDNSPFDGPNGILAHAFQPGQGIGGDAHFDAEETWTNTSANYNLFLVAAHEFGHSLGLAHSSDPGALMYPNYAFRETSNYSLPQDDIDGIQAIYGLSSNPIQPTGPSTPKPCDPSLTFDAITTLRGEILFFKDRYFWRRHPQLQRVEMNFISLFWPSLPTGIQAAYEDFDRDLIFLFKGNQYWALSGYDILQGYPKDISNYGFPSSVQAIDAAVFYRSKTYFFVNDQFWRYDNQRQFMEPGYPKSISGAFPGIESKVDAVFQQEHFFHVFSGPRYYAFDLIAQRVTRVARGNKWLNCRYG
T1 sequence (P39900 106-470): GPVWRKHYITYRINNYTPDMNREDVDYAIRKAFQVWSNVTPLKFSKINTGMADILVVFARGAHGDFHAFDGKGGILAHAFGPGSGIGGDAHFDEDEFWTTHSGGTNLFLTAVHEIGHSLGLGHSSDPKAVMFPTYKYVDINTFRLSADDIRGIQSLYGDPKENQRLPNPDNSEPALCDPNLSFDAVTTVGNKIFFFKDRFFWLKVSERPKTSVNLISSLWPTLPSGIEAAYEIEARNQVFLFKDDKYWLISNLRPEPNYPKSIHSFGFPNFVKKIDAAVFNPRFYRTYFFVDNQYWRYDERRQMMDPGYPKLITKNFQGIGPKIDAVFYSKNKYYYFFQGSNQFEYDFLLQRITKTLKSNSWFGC

On to `O=C(CC(CCn1nnc2ccc(C(F)(F)F)cc2c1=O)C(=O)O)c1noc2cc(OCC3CCOCC3)ccc12` (racemic) [Example 155, (+/−)-4-Oxo-2-{2-[4-oxo-6-(trifluoromethyl)-1,2,3-benzotriazin-3(4H)-yl]ethyl}-4-[6-(tetrahydro-2H-pyran-4-ylmethoxy)-1,2-benzoxazol-3-yl]butanoic acid], for which the IC50 was 0.39 nM in data set [1], 82 nM against MMP-8 and above 40000 nM against MMP-14. In the data set on rat hepatocytes, the “CLblood (calculated blood clearance, well-stirred)” value was 20.2 mL/min/kg. Moreover, in the data set with rat hepatocytes, the “Fmax (maximum possible bioavailability after oral administration, well-stirred)” value is 71.1%.
For `O=C(CC(CCn1nnc2ccccc2c1=O)C(=O)O)c1noc2cc(OCc3ccc(F)cc3)ccc12` (racemic) [Example 136, (+/−)-4-{6-[(4-Fluorobenzyl)oxy]-1,2-benzoxazol-3-yl}-4-oxo-2-[2-(4-oxo-1,2,3-benzotriazin-3(4H)-yl)ethyl]butanoic acid], in that order: 0.63 nM, 1200 nM, 4900 nM, 12.2 mL/min/kg and 82.7%.
For `O=C(CC(CCn1nnc2ccccc2c1=O)C(=O)O)c1cc2ccc(OCC3CC3)cc2s1` (single isomer, unassigned; (+)) [Example 112, (+)-4-[6-(Cyclopropylmethoxy)-1-benzothiophen-2-yl]-4-oxo-2-[2-(4-oxo-1,2,3-benzotriazin-3(4H)-yl)ethyl]butanoic acid], in that order: 2.2 nM, 240 nM, 2800 nM, 33.2 mL/min/kg and 52.5%.
The matching figures for `O=C(CC(CCn1nnc2ccccc2c1=O)C(=O)O)c1cc2cc(OCC3CCOCC3)ccc2o1` (racemic) [Example 5, (+/−)-4-Oxo-2-[2-(4-oxo-1,2,3-benzotriazin-3(4H)-yl)ethyl]-4-[5-(tetrahydro-2H-pyran-4-ylmethoxy)-1-benzofur-2-yl]butanoic acid]: 2.1 nM, 7700 nM, 34000 nM, 27 mL/min/kg and 61.4%.
Regarding `O=C(CC(CCn1nnc2ccccc2c1=O)C(=O)O)c1cc2ccc(OCCc3ccccc3)cc2o1` (racemic) [Example 73, (+/−)-4-Oxo-2-[2-(4-oxo-1,2,3-benzotriazin-3(4H)-yl)ethyl]-4-[6-(2-phenylethoxy)-1-benzofur-2-yl]butanoic acid], the IC50 is 2.8 nM in data set [1], above 40000 nM against MMP-8 and above 40000 nM at MMP-14. Further, the “CLblood (calculated blood clearance, well-stirred)” value in the data set on rat hepatocytes is 23.2 mL/min/kg. The “Fmax (maximum possible bioavailability after oral administration, well-stirred)” value in the data set with rat hepatocytes is reported as 66.9%.
In the case of `O=C(CC(CCn1nnc2ccccc2c1=O)C(=O)O)c1noc2cc(OCCc3ccccc3)ccc12` (racemic) [Example 144, (+/−)-4-Oxo-2-[2-(4-oxo-1,2,3-benzotriazin-3(4H)-yl)ethyl]-4-[6-(2-phenylethoxy)-1,2-benzoxazol-3-yl]butanoic acid], the half-maximal inhibitory concentration (IC50) in data set [1] came to 1.4 nM; against MMP-8, 2500 nM; on MMP-14 it was 2500 nM. Also, the “CLblood (calculated blood clearance, well-stirred)” value in the data set on rat hepatocytes was 29 mL/min/kg. Also, the “Fmax (maximum possible bioavailability after oral administration, well-stirred)” value in the data set on rat hepatocytes is listed as 58.6%.
Consider `O=C(CC(CCn1nnc2ccc(C(F)(F)F)cc2c1=O)C(=O)O)c1noc2cc(OCc3ccccc3)ccc12` (racemic) [Example 154, (+/−)-4-[6-(Benzyloxy)-1,2-benzoxazol-3-yl]-4-oxo-2-{2-[4-oxo-6-(trifluoromethyl)-1,2,3-benzotriazin-3(4H)-yl]ethyl}butanoic acid], for which the figures for the IC50 (in data set [1]; against MMP-8; against MMP-14) were 0.75 nM, 970 nM and 26000 nM, respectively. For the same compound, the “CLblood (calculated blood clearance, well-stirred)” value in the data set with rat hepatocytes is 20.3 mL/min/kg. Also, the “Fmax (maximum possible bioavailability after oral administration, well-stirred)” value in the data set on rat hepatocytes was found to be 70.9%.
As for `O=C(O)[C@@H]1[C@@H](Cn2nnc3ccc(C(F)(F)F)cc3c2=O)CC[C@H]1C(=O)c1cc2cc(OCCc3ccccc3)ccc2o1` (single isomer, unassigned; enantiomer 2) [Example 159, (+)-(1RS,2SR,5RS)-2-{[4-Oxo-6-(trifluoromethyl)-1,2,3-benzotriazin-3(4H)-yl]methyl}-5-{[5-(2-phenylethoxy)-1-benzofur-2-yl]carbonyl}cyclopentanecarboxylic acid (enantiomer 2)], the half-maximal inhibitory concentration (IC50) was found to be 0.063 nM in data set [1], 310 nM against MMP-8 and 2600 nM on MMP-14. The “CLblood (calculated blood clearance, well-stirred)” value with rat hepatocytes was 10.8 mL/min/kg. Also, in the data set with rat hepatocytes, the “Fmax (maximum possible bioavailability after oral administration, well-stirred)” value came out at 84.5%.
For `O=C(CC(CCn1nnc2ccccc2c1=O)C(=O)O)c1noc2cc(OCc3ccccc3)ccc12` (racemic) [Example 145, (+/−)-4-[6-(Benzyloxy)-1,2-benzoxazol-3-yl]-4-oxo-2-[2-(4-oxo-1,2,3-benzotriazin-3(4H)-yl)ethyl]butanoic acid], the results for the IC50 (in data set [1]; at MMP-8; against MMP-14) were 0.71 nM, 2800 nM and 4000 nM, respectively. In addition, in the data set on rat hepatocytes, the “CLblood (calculated blood clearance, well-stirred)” value was 25.5 mL/min/kg. Also, the “Fmax (maximum possible bioavailability after oral administration, well-stirred)” value in the data set on rat hepatocytes is listed as 63.7%.
The matching figures for `O=C(C[C@H](CCn1nnc2ccccc2c1=O)C(=O)O)c1noc2cc(OCC3CCOCC3)ccc12` (single isomer, unassigned; enantiomer 2) [Example 135]: 0.16 nM, 170 nM, 3500 nM, 22.7 mL/min/kg and 67.5%.
Turning to `CCCCCOc1ccc2c(C(=O)CC(CCn3nnc4ccccc4c3=O)C(=O)O)noc2c1` (racemic) [Example 140, (+/−)-4-Oxo-2-[2-(4-oxo-1,2,3-benzotriazin-3(4H)-yl)ethyl]-4-[6-(pentyloxy)-1,2-benzoxazol-3-yl]butanoic acid], the concentration for half-maximal inhibition (IC50) is 0.28 nM in data set [1], 570 nM at MMP-8 and 3400 nM on MMP-14. Moreover, the “CLblood (calculated blood clearance, well-stirred)” value in the data set with rat hepatocytes was 24.8 mL/min/kg. Moreover, the “Fmax (maximum possible bioavailability after oral administration, well-stirred)” value with rat hepatocytes is 64.5%.
